# Test results taken from US20220370440A1 (Lead Discovery Center GmbH, priority 2018, published 2022).
# Key:
# [1] = molecular target: EGFR Exon 20 INSNPH Ba/F3 (Homo sapiens, UniProt P00533, DUP771-773, cells depend on it); test: EGFR Exon 20 INSNPH Ba/F3 CellTiter-Glo; type: cell-based; conditions: CellTiter-Glo, 72 h, read-out: EGFR Exon 20 INSNPH Ba/F3 CTG IC50
# Method: (§1) 2. Measurement of Cellular Activity
# (§2) The CellTiter-Glo Luminescent Cell Viability Assay (Promega) is a homogeneous method of determining the number of viable cells in culture. It is based on quantification of ATP, indicating the presence of metabolically active cells. Cells are seeded on day 1 at cell numbers that assure assay linearity and optimal signal intensity. After incubation for 24 h in humidified chambers at 37° C. and 5% CO2, compounds in DMSO are added at different concentrations. Cells are further incubated for 72 h at 37° C. and 5% CO2. Cells treated with the compound vehicle DMSO are used as positive controls and cells treated with 10 μM Staurosporine serve as negative controls. At day 5 the CellTiter Glo Reagent is prepared according to the instructions of the kit (Promega Inc.): Reagent is mixed 1:1 with cell culture medium. Thereon, mixture and assay plates are equilibrated at room temperature for 20 min. Equal volumes of the reagent-medium-mixture is added to the volume of culture medium present in each well. The plates are mixed at ˜200 rpm for 2 minutes on an orbital shaker. The microplates are then incubated at room temperature for 10 minutes for stabilization of the luminescent signal. Following incubation the luminescence is recorded on a Victor microplate reader (Perkin Elmer) using a 200 ms integration time. The data is then analyzed with Excel using the XLFIT Plugin (dose response Fit 205) for IC50-determination. As quality control the Z′-factor is calculated from 16 positive and negative control values. Only assay results showing a Z′-factor ≥0.5 are used for further analysis.
# (§3) Inhibition is indicated as IC50 [nM] (“−”=not measured). Compounds having an activity designated as “A” provided an IC50≤100 nM; compounds having an activity designated as “B” provided an 100 nM<IC50≤500 nM; compounds having an activity designated as “C” provided an 500 nM<IC50≤1000 nM; compounds having an activity designated as “D” provided an 1000 nM<IC50≤10000 nM; and compounds having an activity designated as “E” provided an IC50>10000 nM.
# [2] = molecular target: T1, HER2 INS YVMA (Homo sapiens, UniProt P04626, INS775YVMA); test: Lance Kinase Activity Assay, HER2 INS YVMA (Her2 Exon 20 INSYVMA Lance); type: biochemical; conditions: biochemical Lance assay
# T1 construct: purchased DPF
# Method: 1. Measurement of HER2 INS YVMA Kinase Activity
# This protocol describes how the Lance Kinase Activity Assay was performed to determine IC50 values of compounds of general formula (I) against HER2 INS YVMA. The principle behind this enzymatic assay is based upon the phosphorylation of the Ulight-peptide substrate. It is detected by using a specific EU-labeled anti-phospho peptide antibody. The binding of the Eu labeled anti-phospho peptide antibody to the phosphorylated ULight labeled peptide gives rise to a FRET-signal.
# Binding of an inhibitor to the kinase prevents phosphorylation of the Ulight-substrate, resulting in a loss of FRET. In table 2 is summarized the relevant information for the LANCE assay.
# The compounds of general formula (I) summarized in Table 3 were serial diluted from a 10 mM DMSO stock solution 1:3 over 8 steps in a total volume of 20 μl.
# For every sample, 8 μl of kinase-substrate mix was transferred into a suitable assay plate (e.g. Corning #3673). Compound was added via pintool transfer (10 nl/well) using a Biomek FX robot (BeckmanCoulter). Reaction was started by addition of 2 μl ATP working solution and mixed using variomag teleshaker (Thermo Fischer Scientific). After 1 h incubation at room temperature the reaction was stopped with 10 μl detection mix containing the Eu-labeled phosphospecific antibody and 10 mM EDTA. After a second incubation period of 1 h at room temperature the FRET signal was measured at 340 nm excitation, 665 nm and 615 nm emission (for the ULight-substrate and Eu-AB, respectively) with an Envision spectrophotometer (Perkin Elmer, Waltham, Mass., USA) with 50 μs delay and 300 μs integration time. IC50 values were determined from the sigmoidal dose response curves with the software Quattro Workflow (Quattro GmbH, Munich, Germany).
# [3] = molecular target: EGFR T790ML858R (Homo sapiens, UniProt P00533, L858R/T790M); test: EGFR T790ML858R Lance assay; type: biochemical
# Method: (§4) Inhibition is indicated as […] [nM] (“−”=not measured). Compounds having an activity designated as “A” provided an IC50≤100 nM; compounds having an activity designated as “B” provided an 100 nM<IC50≤500 nM; compounds having an activity designated as “C” provided an 500 nM<IC50≤1000 nM; compounds having an activity designated as “D” provided an 1000 nM<IC50≤100000 nM; and compounds having an activity designated as “E” provided an IC50>10000 nM.
# [4] = molecular target: EGFR wt (Homo sapiens, UniProt P00533); test: EGFR wt Lance assay; type: biochemical
# Method: as §4
# [5] = system: H1975; test: H1975 CellTiter-Glo; type: cell-based; conditions: Homo sapiens, NCI-H1975; 72 h compound incubation; read-out: H1975 CTG IC50
# Method: as §1, §2, §4
# [6] = system: A431; test: A431 CellTiter-Glo; type: cell-based; conditions: Homo sapiens, A-431; 72 h compound incubation; read-out: A431 CTG IC50
# Method: as §1, §2, §4
# [7] = molecular target: Her2 Exon 20 INSYVMA Ba/F3 (Homo sapiens, UniProt P04626, DUP772-775, cells depend on it); test: Her2 Exon 20 INSYVMA Ba/F3 CellTiter-Glo; type: cell-based; conditions: CellTiter-Glo, 72 h, read-out: Her2 Exon 20 INSYVMA Ba/F3 CTG IC50
# Method: as §1, §2, §3
# EGFR T790ML858R, sequence (P00533 25-1210 T790M/L858R): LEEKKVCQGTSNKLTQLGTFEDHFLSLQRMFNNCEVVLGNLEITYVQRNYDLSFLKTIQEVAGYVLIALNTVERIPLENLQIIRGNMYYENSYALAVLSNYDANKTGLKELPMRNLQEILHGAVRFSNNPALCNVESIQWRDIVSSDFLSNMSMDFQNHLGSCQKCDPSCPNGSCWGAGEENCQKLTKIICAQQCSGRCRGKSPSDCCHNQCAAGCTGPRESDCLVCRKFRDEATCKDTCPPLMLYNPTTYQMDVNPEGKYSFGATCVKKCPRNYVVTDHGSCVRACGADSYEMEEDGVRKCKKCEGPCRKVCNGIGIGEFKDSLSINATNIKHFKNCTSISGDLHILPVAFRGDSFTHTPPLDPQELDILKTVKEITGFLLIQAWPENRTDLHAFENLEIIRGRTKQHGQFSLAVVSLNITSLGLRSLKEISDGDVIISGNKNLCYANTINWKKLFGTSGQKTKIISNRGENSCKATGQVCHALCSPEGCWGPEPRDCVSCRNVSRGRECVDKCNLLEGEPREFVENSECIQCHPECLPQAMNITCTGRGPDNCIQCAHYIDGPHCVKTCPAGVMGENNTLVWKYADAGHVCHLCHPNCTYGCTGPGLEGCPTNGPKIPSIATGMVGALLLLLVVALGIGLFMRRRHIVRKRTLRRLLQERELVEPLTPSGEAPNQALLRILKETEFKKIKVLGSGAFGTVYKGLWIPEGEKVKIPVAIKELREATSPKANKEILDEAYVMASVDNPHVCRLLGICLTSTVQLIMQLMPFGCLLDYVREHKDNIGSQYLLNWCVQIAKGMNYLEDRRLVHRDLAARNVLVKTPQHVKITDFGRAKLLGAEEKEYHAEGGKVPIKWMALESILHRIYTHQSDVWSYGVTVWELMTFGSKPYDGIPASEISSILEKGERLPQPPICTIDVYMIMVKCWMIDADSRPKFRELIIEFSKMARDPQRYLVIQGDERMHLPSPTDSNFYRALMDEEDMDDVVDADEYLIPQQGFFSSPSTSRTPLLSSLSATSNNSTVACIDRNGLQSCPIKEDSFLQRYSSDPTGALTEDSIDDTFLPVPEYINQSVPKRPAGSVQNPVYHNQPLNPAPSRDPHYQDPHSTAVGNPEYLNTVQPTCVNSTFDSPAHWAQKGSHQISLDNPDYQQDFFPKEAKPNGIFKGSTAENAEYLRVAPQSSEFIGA
# EGFR wt, sequence (P00533 25-1210): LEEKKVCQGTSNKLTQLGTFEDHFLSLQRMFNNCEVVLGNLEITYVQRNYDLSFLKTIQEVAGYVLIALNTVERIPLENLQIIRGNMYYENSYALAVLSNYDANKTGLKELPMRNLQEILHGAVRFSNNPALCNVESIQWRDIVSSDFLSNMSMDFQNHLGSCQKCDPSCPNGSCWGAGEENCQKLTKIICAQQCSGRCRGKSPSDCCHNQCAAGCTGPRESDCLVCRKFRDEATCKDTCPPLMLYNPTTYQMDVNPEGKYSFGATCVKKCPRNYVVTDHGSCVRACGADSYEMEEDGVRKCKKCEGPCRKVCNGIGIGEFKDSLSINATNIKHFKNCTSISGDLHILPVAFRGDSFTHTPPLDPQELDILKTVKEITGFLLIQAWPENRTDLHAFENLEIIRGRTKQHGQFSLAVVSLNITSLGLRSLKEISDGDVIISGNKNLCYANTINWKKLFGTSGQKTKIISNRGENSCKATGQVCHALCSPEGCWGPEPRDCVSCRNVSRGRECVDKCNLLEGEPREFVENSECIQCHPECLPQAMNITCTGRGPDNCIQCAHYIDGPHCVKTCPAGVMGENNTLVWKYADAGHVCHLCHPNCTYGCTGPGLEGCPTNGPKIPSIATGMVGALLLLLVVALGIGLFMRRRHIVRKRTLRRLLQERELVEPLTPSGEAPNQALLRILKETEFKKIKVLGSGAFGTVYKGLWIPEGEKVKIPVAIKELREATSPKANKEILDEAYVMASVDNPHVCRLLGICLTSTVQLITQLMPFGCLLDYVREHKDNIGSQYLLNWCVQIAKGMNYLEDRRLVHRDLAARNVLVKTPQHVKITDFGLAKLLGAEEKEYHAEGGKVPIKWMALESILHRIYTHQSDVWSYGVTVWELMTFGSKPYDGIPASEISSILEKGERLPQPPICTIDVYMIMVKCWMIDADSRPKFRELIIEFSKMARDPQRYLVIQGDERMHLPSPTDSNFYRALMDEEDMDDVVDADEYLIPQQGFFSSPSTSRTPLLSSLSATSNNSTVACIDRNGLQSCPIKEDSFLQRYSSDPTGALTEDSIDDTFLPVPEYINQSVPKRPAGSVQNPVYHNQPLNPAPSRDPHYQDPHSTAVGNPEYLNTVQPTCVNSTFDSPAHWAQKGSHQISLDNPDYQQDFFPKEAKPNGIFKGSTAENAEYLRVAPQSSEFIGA
# EGFR Exon 20 INSNPH Ba/F3, sequence (P00533 with tags, fused parts or gaps DUP771-773): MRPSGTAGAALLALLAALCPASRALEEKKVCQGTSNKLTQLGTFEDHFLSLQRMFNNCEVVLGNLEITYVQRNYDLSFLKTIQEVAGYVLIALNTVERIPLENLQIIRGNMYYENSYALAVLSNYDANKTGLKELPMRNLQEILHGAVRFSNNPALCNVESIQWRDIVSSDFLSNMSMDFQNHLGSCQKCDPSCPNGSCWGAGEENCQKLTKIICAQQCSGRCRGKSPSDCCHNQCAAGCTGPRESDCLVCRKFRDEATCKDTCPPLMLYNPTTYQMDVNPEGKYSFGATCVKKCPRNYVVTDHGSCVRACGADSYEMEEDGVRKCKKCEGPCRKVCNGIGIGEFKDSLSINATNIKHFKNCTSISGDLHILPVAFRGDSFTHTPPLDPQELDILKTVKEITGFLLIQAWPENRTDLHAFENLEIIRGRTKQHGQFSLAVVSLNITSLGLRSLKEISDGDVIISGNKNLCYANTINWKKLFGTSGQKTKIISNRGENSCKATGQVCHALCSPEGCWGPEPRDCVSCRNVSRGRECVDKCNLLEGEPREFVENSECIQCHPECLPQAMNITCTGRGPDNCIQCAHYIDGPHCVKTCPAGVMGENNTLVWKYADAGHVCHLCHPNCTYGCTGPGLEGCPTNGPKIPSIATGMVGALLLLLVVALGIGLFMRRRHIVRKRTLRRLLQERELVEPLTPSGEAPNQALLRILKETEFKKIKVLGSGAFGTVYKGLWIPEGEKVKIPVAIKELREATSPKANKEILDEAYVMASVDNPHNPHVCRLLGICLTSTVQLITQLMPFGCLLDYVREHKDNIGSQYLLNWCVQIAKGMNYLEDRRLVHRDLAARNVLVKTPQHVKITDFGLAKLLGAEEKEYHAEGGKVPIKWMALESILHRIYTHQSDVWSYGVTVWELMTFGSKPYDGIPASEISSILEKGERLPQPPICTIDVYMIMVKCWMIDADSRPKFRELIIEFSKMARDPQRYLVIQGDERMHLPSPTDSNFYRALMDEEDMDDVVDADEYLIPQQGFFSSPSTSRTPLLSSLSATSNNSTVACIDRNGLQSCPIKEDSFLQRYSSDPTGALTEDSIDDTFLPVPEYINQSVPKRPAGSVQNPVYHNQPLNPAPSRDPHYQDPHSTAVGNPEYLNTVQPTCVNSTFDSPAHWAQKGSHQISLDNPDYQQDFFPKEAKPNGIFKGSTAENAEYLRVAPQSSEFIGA
# T1 sequence (P04626 with tags, fused parts or gaps INS775YVMA): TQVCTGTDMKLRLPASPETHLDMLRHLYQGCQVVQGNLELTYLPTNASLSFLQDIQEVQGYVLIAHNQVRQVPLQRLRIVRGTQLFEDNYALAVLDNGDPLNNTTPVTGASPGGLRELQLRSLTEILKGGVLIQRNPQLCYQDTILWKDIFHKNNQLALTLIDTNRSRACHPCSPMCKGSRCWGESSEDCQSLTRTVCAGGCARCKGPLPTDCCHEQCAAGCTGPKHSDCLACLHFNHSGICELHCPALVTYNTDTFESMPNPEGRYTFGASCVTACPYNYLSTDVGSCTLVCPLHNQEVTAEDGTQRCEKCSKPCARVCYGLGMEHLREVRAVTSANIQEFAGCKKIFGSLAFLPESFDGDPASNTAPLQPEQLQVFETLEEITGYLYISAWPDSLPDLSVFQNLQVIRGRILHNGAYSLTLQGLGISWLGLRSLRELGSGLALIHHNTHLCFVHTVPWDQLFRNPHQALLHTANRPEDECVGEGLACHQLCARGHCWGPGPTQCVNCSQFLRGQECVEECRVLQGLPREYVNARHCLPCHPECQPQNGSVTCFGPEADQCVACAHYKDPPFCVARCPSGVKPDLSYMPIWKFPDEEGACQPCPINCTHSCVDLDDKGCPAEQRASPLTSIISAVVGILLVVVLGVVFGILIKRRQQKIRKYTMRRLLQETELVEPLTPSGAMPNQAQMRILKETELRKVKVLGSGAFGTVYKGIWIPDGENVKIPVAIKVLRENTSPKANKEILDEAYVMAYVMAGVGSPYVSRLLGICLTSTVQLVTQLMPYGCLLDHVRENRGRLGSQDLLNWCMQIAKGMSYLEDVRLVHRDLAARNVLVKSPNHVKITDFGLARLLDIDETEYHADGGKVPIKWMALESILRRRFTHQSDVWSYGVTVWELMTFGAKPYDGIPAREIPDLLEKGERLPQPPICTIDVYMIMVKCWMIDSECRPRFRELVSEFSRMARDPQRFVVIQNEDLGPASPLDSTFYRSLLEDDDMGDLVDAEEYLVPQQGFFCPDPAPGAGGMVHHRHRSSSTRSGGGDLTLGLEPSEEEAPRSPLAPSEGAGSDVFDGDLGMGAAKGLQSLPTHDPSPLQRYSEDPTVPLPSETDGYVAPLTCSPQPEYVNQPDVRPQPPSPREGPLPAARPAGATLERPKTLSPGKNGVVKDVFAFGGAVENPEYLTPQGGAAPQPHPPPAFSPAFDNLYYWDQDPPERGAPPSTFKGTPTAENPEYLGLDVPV
Structure (SMILES),GI50 [1] [nM],IC50 [2] [nM],IC50 [3] [nM],IC50 [4] [nM],IC50 [5] [nM],IC50 [6] [nM],GI50 [7] [nM]
"C=CC(=O)Nc1cc(-c2c(-c3ccc(N4CCN(S(=O)(=O)CC)CC4)cc3)[nH]c3ncc(C(=O)OC(C)C)cc23)ccc1C [Example 184, isopropyl 3-(3-acrylamido-4-methylphenyl)-2-(4-(4-(ethylsulfonyl)piperazin-1-yl)phenyl)-1H-pyrrolo[2,3-b]pyridine-5-carboxylate]",1000 to 10000,500 to 1000,100 to 500,≤ 100,1000 to 100000,> 10000,1000 to 10000
"C=CC(=O)Nc1cc(-c2c(-c3ccc(N4CCN(C)CC4)cc3)[nH]c3ncc(C(=O)NCc4cccnc4)cc23)ccc1C [Example 128, 3-(3-acrylamido-4-methylphenyl)-2-(4-(4-methylpiperazin-1-yl)phenyl)-N-(pyridin-3-ylmethyl)-1H-pyrrolo[2,3-b]pyridine-5-carboxamide]",1000 to 10000,≤ 100,≤ 100,≤ 100,1000 to 100000,1000 to 100000,1000 to 10000
"C=CC(=O)Nc1cc(-c2c(-c3ccc(N4CCN(C)CC4)cc3)[nH]c3ncc(OCC)cc23)ccc1C [Example 193, N-(5-(5-ethoxy-2-(4-(4-methylpiperazin-1-yl)phenyl)-1H-pyrrolo[2,3-b]pyridin-3-yl)-2-methylphenyl)acrylamide 2,2,2-trifluoroacetate]",100 to 500,≤ 100,≤ 100,≤ 100,100 to 500,1000 to 100000,≤ 100
"C=CC(=O)Nc1cc(-c2c(-c3ccc(N4CCN(C)CC4)cc3)[nH]c3ncc(CC(=O)OC)cc23)ccc1C [Example 195, methyl 2-(3-(3-acrylamido-4-methylphenyl)-2-(4-(4-methylpiperazin-1-yl)phenyl)-1H-pyrrolo[2,3-b]pyridin-5-yl)acetate]",100 to 500,≤ 100,≤ 100,≤ 100,100 to 500,1000 to 100000,100 to 500
"C=CC(=O)Nc1cc(-c2c(-c3ccc(N4CCN(C)CC4)cc3)[nH]c3ncc(C(=O)NCc4ccncc4)cc23)ccc1C [Example 127, 3-(3-acrylamido-4-methylphenyl)-2-(4-(4-methylpiperazin-1-yl)phenyl)-N-(pyridin-4-ylmethyl)-1H-pyrrolo[2,3-b]pyridine-5-carboxamide]",1000 to 10000,≤ 100,≤ 100,≤ 100,1000 to 100000,1000 to 100000,1000 to 10000
"C=CC(=O)Nc1cc(-c2c(-c3ccc(N4CCN(C)CC4)cc3)[nH]c3ncc(CC(=O)OC4COC4)cc23)ccc1C [Example 197, oxetan-3-yl 2-(3-(3-acrylamido-4-methylphenyl)-2-(4-(4-methylpiperazin-1-yl)phenyl)-1H-pyrrolo[2,3-b]pyridin-5-yl)acetate]",100 to 500,≤ 100,≤ 100,≤ 100,500 to 1000,1000 to 100000,1000 to 10000
"C=CC(=O)Nc1cc(-c2c(-c3ccc(CN(C)C)cc3)[nH]c3ncc(C(=O)OC(C)C)cc23)ccc1C [Example 151, isopropyl 3-(3-acrylamido-4-methylphenyl)-2-(4-((dimethylamino)methyl)phenyl)-1H-pyrrolo[2,3-b]pyridine-5-carboxylate]",100 to 500,≤ 100,≤ 100,≤ 100,100 to 500,1000 to 100000,100 to 500
"C=CC(=O)Nc1cc(-c2c(-c3ccc(N4CCN(C)CC4)cc3)[nH]c3ncc(CO)cc23)ccc1C [Example 199, N-(5-(5-(hydroxymethyl)-2-(4-(4-methylpiperazin-1-yl)phenyl)-1H-pyrrolo[2,3-b]pyridin-3-yl)-2-methylphenyl)acrylamide 2,2,2-trifluoroacetate]",100 to 500,≤ 100,≤ 100,≤ 100,100 to 500,1000 to 100000,500 to 1000

# Next, values leading:
GI50 [1] [nM],IC50 [2] [nM],IC50 [3] [nM],IC50 [4] [nM],IC50 [5] [nM],IC50 [6] [nM],GI50 [7] [nM],Structure (SMILES)
1000 to 10000,≤ 100,≤ 100,≤ 100,100 to 500,1000 to 100000,500 to 1000,"C=CC(=O)N1CCCc2ccc(-c3c(-c4ccc(OCCN5CCCC5)cc4)[nH]c4nccc(Cl)c34)cc21 [Example 90, 1-(7-(4-chloro-2-(4-(2-(pyrrolidin-1-yl)ethoxy)phenyl)-1H-pyrrolo[2,3-b]pyridin-3-yl)-3,4-dihydroquinolin-1(2H)-yl)prop-2-en-1-one]"
100 to 500,≤ 100,≤ 100,≤ 100,100 to 500,1000 to 100000,100 to 500,"C=CC(=O)Nc1cc(-c2c(-c3ccc(N4CCN(C)CC4)cc3)[nH]c3ncc(CC(=O)OC(C)C)cc23)ccc1C [Example 190, isopropyl 2-(3-(3-acrylamido-4-methylphenyl)-2-(4-(4-methylpiperazin-1-yl)phenyl)-1H-pyrrolo[2,3-b]pyridin-5-yl)acetate 2,2,2-trifluoroacetate]"
100 to 500,≤ 100,≤ 100,≤ 100,1000 to 100000,1000 to 100000,100 to 500,"C=CC(=O)Nc1cc(-c2c(-c3ccc(N4CCN(C)CC4)cc3)[nH]c3ncc(NC(=O)C(C)C)cc23)ccc1C [Example 200, N-(5-(5-isobutyramido-2-(4-(4-methylpiperazin-1-yl)phenyl)-1H-pyrrolo[2,3-b]pyridin-3-yl)-2-methylphenyl)acrylamide 2,2,2-trifluoroacetate]"
100 to 500,≤ 100,≤ 100,≤ 100,500 to 1000,1000 to 100000,500 to 1000,"C=CC(=O)Nc1cc(-c2c(-c3ccc(N4CCN(C)CC4)nc3)[nH]c3ncc(C(=O)OC(C)C)cc23)cc(F)c1C [Example 174, isopropyl 3-(3-acrylamido-5-fluoro-4-methylphenyl)-2-(6-(4-methylpiperazin-1-yl)pyridin-3-yl)-1H-pyrrolo[2,3-b]pyridine-5-carboxylate]"
